Read-outs that look alike come from different tables or passages of the source.
Key:
[1] = molecular target: recombinant human Mcl-1 (residues 171-327) / Bim interaction (Homo sapiens (Human), UniProt Q07820); test: biochemical; format: binding; details: TR-FRET, Mcl-1(171-327) / biotin-Bim (51-76); read-out: Mcl-1 HTRF IC50
[2] = test system: human multiple myeloma cell line, OPM-2; test: Cell viability assay (OPM-2 10 FBS), CellTiter-Glo; format: cell-based
Outline: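 Cells were seeded at 3000 cells/well in RPMI 1640 with 10% FBS and exposed to serially diluted compounds for 16 h at 37 °C, 5% CO2.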

[3] = Homo sapiens, OPM-2, 16 h, read-out: OPM-2 10% FBS IC50 IP, OPM-2 cells, 10% FBS, 16 h, CellTiter-Glo

Sequence of recombinant human Mcl-1 (residues 171-327) / Bim interaction (Q07820 171-327): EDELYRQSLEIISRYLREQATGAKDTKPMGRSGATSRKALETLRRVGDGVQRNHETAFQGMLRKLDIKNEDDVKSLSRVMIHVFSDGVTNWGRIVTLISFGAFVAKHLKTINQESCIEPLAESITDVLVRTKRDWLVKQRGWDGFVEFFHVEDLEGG

Structure (SMILES)	IC50 [1] [nM]	IC50 [2, 3] [nM]	IC50 ([2]; read-out: OPM-2 10% FBS IC50 IP, OPM-2 cells, 10% FBS, 16 h, CellTiter-Glo) [nM]
C=CC[C@]1(OC)/C=C/C[C@H](C)[C@@H](C)S(=O)(=O)NC(=O)c2ccc3c(c2)N(C[C@@H]2CC[C@H]21)C[C@@]1(CCCc2cc(Cl)ccc21)CO3 [Example 100397, (1S,3′R,6′R,7′S,8′E,11′S,12′R)-6-chloro-7′-methoxy-11′,12′-dimethyl-7′-(2-propen-1-yl)-3,4-dihydro-2H,15′H-spiro[naphthalene-1,22′-[20]oxa[13]thia[1,14]diazatetracyclo [14.7.2.0~3,6~.0~19,24~]pentacosa[8,16,18,24]tetraen]-15′-one 13′,13′-dioxide]	0.198	404	
COC[C@]1(OC)/C=C/C[C@H](C)[C@@H](C)S(=O)(=O)NC(=O)c2ccc3c(c2)N(C[C@@H]2CC[C@H]21)C[C@@]1(CCCc2cc(Cl)ccc21)CO3 [Example 100401, (1S,3′R,6′R,7′S,8′E,11′S,12′R)-6-chloro-7′-methoxy-7′-(methoxymethyl)-11′,12′-dimethyl-3,4-dihydro-2H,15′H-spiro[naphthalene-1,22′-[20]oxa[13]thia[1,14]diazatetracyclo [14.7.2.0~3,6~.0~19,24~]pentacosa[8,16,18,24]tetraen]-15′-one 13′,13′-dioxide]	1.8	8390	
C[C@@H]1[C@@H](C)C/C=C/[C@](O)(c2ccc(F)cn2)[C@@H]2CC[C@H]2CN2C[C@@]3(CCCc4cc(Cl)ccc43)COc3ccc(cc32)C(=O)NS1(=O)=O [Example 100403, (1S,3′R,6′R,7′R,8′E,11′S,12′R)-6-chloro-7′-(5-fluoro-2-pyridinyl)-7′-hydroxy-11′,12′-dimethyl-3,4-dihydro-2H,15′H-spiro[naphthalene-1,22′-[20]oxa[13]thia[1,14]diazatetracyclo [14.7.2.0~3,6~.0~19,24~]pentacosa[8,16,18,24]tetraen]-15′-one 13′,13′-dioxide]	0.226	390	
CO[C@@]1(C(C)(C)O)/C=C/C[C@H](C)[C@@H](C)S(=O)(=O)NC(=O)c2ccc3c(c2)N(C[C@@H]2CC[C@H]21)C[C@@]1(CCCc2cc(Cl)ccc21)CO3 [Example 100404, (1S,3′R,6′R,7′S,8′E,11′S,12′R)-6-chloro-7′-(2-hydroxy-2-propanyl)-7′-methoxy-11′,12′-dimethyl-3,4-dihydro-2H,15′H-spiro[naphthalene-1,22′-[20]oxa[13]thia[1,14]diazatetracyclo [14.7.2.0~3,6~.0~19,24~]pentacosa[8,16,18,24]tetraen]-15′-one 13′,13′-dioxide]	2.55	8150	
CO[C@@]1(CC(=O)N(C)C2CCCC2)/C=C/C[C@H](C)[C@@H](C)S(=O)(=O)NC(=O)c2ccc3c(c2)N(C[C@@H]2CC[C@H]21)C[C@@]1(CCCc2cc(Cl)ccc21)CO3 [Example 100405, 2-((1S,3′R,6′R,7′S,8′E,11′S,12′R)-6-chloro-7′-methoxy-11′,12′-dimethyl-13′,13′-dioxido-15′-oxo-3,4-dihydro-2H-spiro[naphthalene-1,22′-[20]oxa[13]thia[1,14]diazatetracyclo [14.7.2.0~3,6~.0~19,24~]pentacosa[8,16,18,24]tetraen]-7′-yl)-N-cyclopentyl-N-methylacetamide]	0.545	1120	
Cc1ccc([C@@]2(O)/C=C/C[C@H](C)[C@@H](C)S(=O)(=O)NC(=O)c3ccc4c(c3)N(C[C@@H]3CC[C@H]32)C[C@@]2(CCCc3cc(Cl)ccc32)CO4)cn1 [Example 100407, (1S,3′R,6′R,7′R,8′E,11′S,12′R)-6-chloro-7′-hydroxy-11′,12′-dimethyl-7′-(6-methyl-3-pyridinyl)-3,4-dihydro-2H,15′H-spiro[naphthalene-1,22′-[20]oxa[13]thia[1,14]diazatetracyclo [14.7.2.0~3,6~.0~19,24~]pentacosa[8,16,18,24]tetraen]-15′-one 13′,13′-dioxide]	0.278	516	
CO[C@]1(C#CCN2CCOCC2)/C=C/C[C@H](C)[C@@H](C)S(=O)(=O)NC(=O)c2ccc3c(c2)N(C[C@@H]2CC[C@H]21)C[C@@]1(CCCc2cc(Cl)ccc21)CO3 [Example 100409, (1S,3′R,6′R,7′R,8′E,11′S,12′R)-6-chloro-7′-methoxy-11′,12′-dimethyl-7′-(3-(4-morpholinyl)-1-propyn-1-yl)-3,4-dihydro-2H,15′H-spiro[naphthalene-1,22′-[20]oxa[13]thia[1,14]diazatetracyclo [14.7.2.0~3,6~.0~19,24~]pentacosa[8,16,18,24]tetraen]-15′-one 13′,13′-dioxide]	0.124		206
C[C@@H]1[C@@H](C)C/C=C/[C@](O)(c2cncnc2)[C@@H]2CC[C@H]2CN2C[C@@]3(CCCc4cc(Cl)ccc43)COc3ccc(cc32)C(=O)NS1(=O)=O [Example 100410, (1S,3′R,6′R,7′R,8′E,11′S,12′R)-6-chloro-7′-hydroxy-11′,12′-dimethyl-7′-(5-pyrimidinyl)-3,4-dihydro-2H,15′H-spiro[naphthalene-1,22′-[20]oxa[13]thia[1,14]diazatetracyclo [14.7.2.0~3,6~.0~19,24~]pentacosa[8,16,18,24]tetraen]-15′-one 13′,13′-dioxide]	0.127	297	
CO[C@@]1(CC(=O)N2CCN3CCOC[C@H]3C2)/C=C/C[C@H](C)[C@@H](C)S(=O)(=O)NC(=O)c2ccc3c(c2)N(C[C@@H]2CC[C@H]21)C[C@@]1(CCCc2cc(Cl)ccc21)CO3 [Example 100411, (1S,3′R,6′R,7′S,8′E,11′S,12′R)-6-chloro-7′-(2-((9aR)-hexahydropyrazino[2,1-c][1,4]oxazin-8(1H)-yl)-2-oxoethyl)-7′-methoxy-11′,12′-dimethyl-3,4-dihydro-2H,15′H-spiro[naphthalene-1,22′-[20]oxa[13]thia[1,14]diazatetracyclo [14.7.2.0~3,6~.0~19,24~]pentacosa[8,16,18,24]tetraen]-15′-one 13′,13′-dioxide]	0.584	2100	
CO[C@@]1(CCN2CCCC2)/C=C/C[C@H](C)[C@@H](C)S(=O)(=O)NC(=O)c2ccc3c(c2)N(C[C@@H]2CC[C@H]21)C[C@@]1(CCCc2cc(Cl)ccc21)CO3 [Example 100412, (1S,3′R,6′R,7′S,8′E,11′S,12′R)-6-chloro-7′-methoxy-11′,12′-dimethyl-7′-(2-(1-pyrrolidinyl)ethyl)-3,4-dihydro-2H,15′H-spiro[naphthalene-1,22′-[20]oxa[13]thia[1,14]diazatetracyclo [14.7.2.0~3,6~.0~19,24~]pentacosa[8,16,18,24]tetraen]-15′-one 13′,13′-dioxide]	0.097	249	
C[C@@H]1[C@@H](C)C/C=C/[C@](O)(C(F)(F)C(=O)N(C)C)[C@@H]2CC[C@H]2CN2C[C@@]3(CCCc4cc(Cl)ccc43)COc3ccc(cc32)C(=O)NS1(=O)=O [Example 100413, 2-((1S,3′R,6′R,7′R,8′E,11′S,12′R)-6-chloro-7′-hydroxy-11′,12′-dimethyl-13′,13′-dioxido-15′-oxo-3,4-dihydro-2H-spiro[naphthalene-1,22′-[20]oxa[13]thia[1,14]diazatetracyclo [14.7.2.0~3,6~.0~19,24~]pentacosa[8,16,18,24]tetraen]-7′-yl)-2,2-difluoro-N,N-dimethylacetamide]	0.228	556	
CCOC(=O)C(F)(F)[C@@]1(O)/C=C/C[C@H](C)[C@@H](C)S(=O)(=O)NC(=O)c2ccc3c(c2)N(C[C@@H]2CC[C@H]21)C[C@@]1(CCCc2cc(Cl)ccc21)CO3 [Example 100414, ethyl ((1S,3′R,6′R,7′R,8′E,11′S,12′R)-6-chloro-7′-hydroxy-11′,12′-dimethyl-13′,13′-dioxido-15′-oxo-3,4-dihydro-2H-spiro[naphthalene-1,22′-[20]oxa[13]thia[1,14]diazatetracyclo [14.7.2.0~3,6~.0~19,24~]pentacosa[8,16,18,24]tetraen]-7′-yl)(difluoro)acetate]	0.626	1270	
CO[C@]1(CCN2CCN(C)C(=O)C2)/C=C/C[C@H](C)[C@@H](C)S(=O)(=O)NC(=O)c2ccc3c(c2)N(C[C@@H]2CC[C@H]21)C[C@@]1(CCCc2cc(Cl)ccc21)CO3 [Example 100415, (1S,3′R,6′R,7′R,8′E,11′S,12′R)-6-chloro-7′-methoxy-11′,12′-dimethyl-7′-(2-(4-methyl-3-oxo-1-piperazinyl)ethyl)-3,4-dihydro-2H,15′H-spiro[naphthalene-1,22′-[20]oxa[13]thia[1,14]diazatetracyclo [14.7.2.0~3,6~.0~19,24~]pentacosa[8,16,18,24]tetraen]-15′-one 13′,13′-dioxide]	1.95	2280	
CCOC(=O)C(F)(F)[C@]1(O)/C=C/C[C@H](C)[C@@H](C)S(=O)(=O)NC(=O)c2ccc3c(c2)N(C[C@@H]2CC[C@H]21)C[C@@]1(CCCc2cc(Cl)ccc21)CO3 [Example 100416, ethyl ((1S,3′R,6′R,7′S,8′E,11′S,12′R)-6-chloro-7′-hydroxy-11′,12′-dimethyl-13′,13′-dioxido-15′-oxo-3,4-dihydro-2H-spiro[naphthalene-1,22′-[20]oxa[13]thia[1,14]diazatetracyclo [14.7.2.0~3,6~.0~19,24~]pentacosa[8,16,18,24]tetraen]-7′-yl)(difluoro)acetate]	0.092	86	
CO[C@@]1(CC(=O)N2CCN(C)C[C@H]2C)/C=C/C[C@H](C)[C@@H](C)S(=O)(=O)NC(=O)c2ccc3c(c2)N(C[C@@H]2CC[C@H]21)C[C@@]1(CCCc2cc(Cl)ccc21)CO3 [Example 100417, (1S,3′R,6′R,7′S,8′E,11′S,12′R)-6-chloro-7′-(2-((2R)-2,4-dimethyl-1-piperazinyl)-2-oxoethyl)-7′-methoxy-11′,12′-dimethyl-3,4-dihydro-2H,15′H-spiro[naphthalene-1,22′-[20]oxa[13]thia[1,14]diazatetracyclo [14.7.2.0~3,6~.0~19,24~]pentacosa[8,16,18,24]tetraen]-15′-one 13′,13′-dioxide]	0.345	379	

Source: patent publication US10821115B2, “Compounds that inhibit Mcl-1 protein” (priority 2017, dated 2020)
